According to patent US6939668B2, “Compositions and methods for treatment of lung transplants” (priority 2001, dated 2005):

Columns and labels:
Type in all cases: cell-based
[1] = tested on: B. cepacia; assay: B. cepacia binding to normal human bronchial epithelial (NHBE) cells; settings: for % Binding of control / % Inhibition: NHBE cells, mean of 4 experiments (range)
Description: Normal human bronchial epithelial (NHBE) cells were grown in 48 well plates. […] Unbound bacteria were removed by washing 6 times with PBS and the bound bacteria were desorbed in 1 ml of 0.5% triton X-100 and quantitated by dilution plating. Results are shown in Table 3 and represent the mean of 4 independent experiments and the values in parenthesis represent the range of experimental values.

[2] = tested on: B. cepacia; assay: Effect of dextrans and xylitol on the viability of B. cepacia; settings: 60 to 80 mg/ml, 2 h, compared to BEGM alone
Description: Explants were obtained from lungs removed from donors for transplantation. All lungs were preserved using LPD lung preservation solution (Perfadex®, Vitrolife, Gotenberg, Sweden) (Fischer et al. (2001), J. Thorac. Cardiovasc. Surg., v. 121, pp. 594-596). Segments of donor trachea that were trimmed off the lung before implantation were used in this study. Airway explants were prepared from donor tracheal segments, which were cut into approximately 4×4 mm^2 pieces, placed in transwells with the epithelial surface facing up and maintained in BEGM at an air/liquid interface for a maximum of 24 h at 37° C., 5% CO2. […] Five micron thick sections were stained with hematoxylin and eosin and examined under a light microscope (Leica, Scarborough, ON). • Effect of dextrans and xylitol on the viability of B. cepacia: B. cepacia (10^7 cfu) was suspended in BEGM containing 0, 2, 4, 6, 7 or 8% of dextran or xylitol for 2 h and then the number of viable bacteria was determined by colony counting method. • Binding of B. cepacia to airway explants: B. cepacia suspended in PBS (5 μl containing 10^8 cfu) was added in the center of the epithelial surface of airway explants and incubated for 2 h at 37° C., 5% CO2. […] After 72 h of incubation at 37° C., bacterial colonies were counted to determine the number of bacteria (cfu) bound per explant.

[3] = tested on: B. cepacia ATCC 25416 (genomovar I); assay: microbe, parasite or virus in culture; design: inhibition: dose or concentration left out as unconfirmed
Description: (§1) B. cepacia (10^7-10^8 cfu) in 5 μl was added to the epithelial surface of tracheal explants, incubated for 2 h at 37° C. and gently washed with PBS 5 times to remove unbound bacteria.
(§2) Bound bacteria were desorbed with 0.25% triton X-100, serially diluted and plated on B. cepacia isolation agar, and incubated at 37° C. for 72 hours. Colonies were counted to calculate the number of bacteria bound per explant. When inhibitors were used, explants were incubated with inhibitors for 1 hour prior to the addition of bacteria.
(§3) Tracheal explants were preincubated for 1 hour with dextran 4K or 40K or xylitol. Bacteria (10^7 or 10^8 cfu) were then incubated for 2 hours with the tracheal explants and the number of bound bacteria per explant was determined as described above. Bacterial binding to explants preincubated with culture medium alone was considered as 0% inhibition (FIG. 1, each bar represents the mean of 14 to 17 independent experiments using trachea from 5 to 6 donors. Data were analyzed by the mixed model analysis of variance using MIXED procedure in SAS statistical software).
(§4) Explants were obtained from lungs removed from donors for transplantation. All lungs were preserved using LPD lung preservation solution (Perfadex®, Vitrolife, Gotenberg, Sweden) (Fischer et al. (2001), J. Thorac. Cardiovasc. Surg., v. 121, pp. 594-596). Segments of donor trachea that were trimmed off the lung before implantation were used in this study. Airway explants were prepared from donor tracheal segments, which were cut into approximately 4×4 mm^2 pieces, placed in transwells with the epithelial surface facing up and maintained in BEGM at an air/liquid interface for a maximum of 24 h at 37° C., 5% CO2. To evaluate the morphological status of the airway explants at this time, the explants were fixed in 10% buffered formalin and embedded in agar-paraffin. Five micron thick sections were stained with hematoxylin and eosin and examined under a light microscope (Leica, Scarborough, ON). • Effect of dextrans and xylitol on the viability of B. cepacia: B. cepacia (10^7 cfu) was suspended in BEGM containing 0, 2, 4, 6, 7 or 8% of dextran or xylitol for 2 h and then the number of viable bacteria was determined by colony counting method. • Binding of B. cepacia to airway explants: B. cepacia suspended in PBS (5 μl containing 10^8 cfu) was added in the center of the epithelial surface of airway explants and incubated for 2 h at 37° C., 5% CO2. The explants were washed gently 6 times with sterile PBS to remove unbound bacteria, and bound bacteria desorbed by incubating in 1 ml of 0.25% triton X-100 for 10 min at RT. Samples were serially diluted, and plated on B. cepacia isolation agar (Henry et al. (1997), J. Clin. Microbiol., v. 35, pp. 614-619). After 72 h of incubation at 37° C., bacterial colonies were counted to determine the number of bacteria (cfu) bound per explant.
(§5) In inhibition assays, epithelia of airway explants were pre-incubated with varying concentrations of potential inhibitors, dextran (4, 10 or 40 kDa) or xylitol for 1 h at 37° C., then bacteria were added and the assay continued as described above. Controls (no inhibitor added) in each experiment were set to a value of 100% binding, to calculate the % inhibition caused by inhibitors. Statistical analysis was carried out using Statsview and the unpaired student's t-test was used to calculate the p value. • Immunological detection of bound bacteria or mucin in airway explants: Paraffin sections of airway explants incubated with PBS or B. cepacia in presence or absence of inhibitors were deparaffinized, rehydrated and heated under pressure for 1.5 min in 10 mM citrate buffer pH 6.0 (Shi et al. (1991), J. Histochem. Cytochem., v. 39, pp. 741-748) to retrieve antigenic sites.

[4] = tested on: B. cepacia C5393 (genomovar II); assay: microbe, parasite or virus in culture; design: inhibition: dose or concentration left out as unconfirmed
Description: as §1, §2, §3, §4, §5

[5] = tested on: B. cepacia CEP040 (genomovar V); assay: microbe, parasite or virus in culture; design: inhibition: dose or concentration left out as unconfirmed
Description: as §1, §2, §3, §4, §5

[6] = tested on: B. cepacia isolate BC7 (genomovar III); assay: microbe, parasite or virus in culture; design: inhibition: dose or concentration left out as unconfirmed; settings: for Percent Inhibition of binding to tracheal explants: isolate BC7, genomovar III
Description: as §1, §2, §3, §4, §5

[7] = tested on: B. cepacia FC473 (genomovar IV); assay: microbe, parasite or virus in culture; design: inhibition: dose or concentration left out as unconfirmed
Description: as §1, §2, §3, §4, §5

[8] = Burkholderia cepacia, Epithelial cell, read-out: % Inhibition of B. cepacia isolates binding to tracheal epithelial cells

O=C[C@H](O)[C@@H](O)[C@@H](O)[C@H](O)CO [Galactose]
inhibitory effect on binding of B. cepacia to NHBE cells ([1]; 0 to 1.8%/ml): None of these sugars inhibited the binding

OC[C@@H](O)[C@H](O)[C@@H](O)CO [Xylitol]
viability of B. cepacia [2]: no change in viability | inhibition ([3]; Burkholderia cepacia, ATCC25416, Epithelial cell, read-out: % Inhibition of B. cepacia isolates binding to tracheal epithelial cells): 82 ± 1.29% | Percent Inhibition of binding to tracheal explants ([3]; isolate ATCC 25416, genomovar I, inhibitor 8%): 84% | inhibition [4, 8]: 70 ± 6.78% | Percent Inhibition of binding to tracheal explants ([4]; isolate C5393, genomovar II, inhibitor 8%): 68% | inhibition [5, 8]: 70 ± 6.75% | Percent Inhibition of binding to tracheal explants ([5]; isolate CEP040, genomovar V, inhibitor 8%): 64% | inhibition of binding of BC7 to airway explants (in words) ([6]; 60 to 80 mg/ml, p<0.005 compared to PBS treated controls, FIG. 4b): significantly inhibited the binding | inhibition [6, 8]: 58 ± 10.7% | inhibition at 80000 µg/mL ([6]; Burkholderia cepacia, read-out: inhibition of binding of B. cepacia isolate BC7 to airway explants): 67% | inhibition of B. cepacia BC7 binding to tracheal explants (in words) ([6]; Example 1, FIG. 1, 1 hour preincubation, p value <0.0001): effective in causing inhibition of bacterial binding | Percent Inhibition of binding to tracheal explants ([6]; inhibitor 7%): 76% | Percent Inhibition of binding to tracheal explants ([6]; inhibitor 8%): 81% | inhibition [7, 8]: 70 ± 3.26% | Percent Inhibition of binding to tracheal explants ([7]; isolate FC473, genomovar IV, inhibitor 7%): 72% | % Binding of control ([1]; xylitol 6%): 64 (29-105) % | % Inhibition ([1]; xylitol 6%): 36 (0-71) % | % Binding of control ([1]; xylitol 7%): 56 (54-58) % | % Inhibition ([1]; xylitol 7%): 44 (42-44) % | % Binding of control ([1]; xylitol 8%): 33 (23-43) % | % Inhibition ([1]; xylitol 8%): 67 (57-77) % | % Binding of control ([1]; xylitol 10%): 23 (18-29) % | % Inhibition ([1]; xylitol 10%): 77 (71-82) %

CC(=O)N[C@H]1[C@H](O[C@H]2[C@H](O)[C@@H](NC(C)=O)[C@H](O[C@H]3[C@H](O)[C@@H](NC(C)=O)C(O)O[C@@H]3CO)O[C@@H]2CO)O[C@H](CO)[C@@H](O[C@@H]2O[C@H](CO)[C@@H](O[C@@H]3O[C@H](CO)[C@@H](O[C@@H]4O[C@H](CO)[C@@H](O)[C@H](O)[C@H]4NC(C)=O)[C@H](O)[C@H]3NC(C)=O)[C@H](O)[C@H]2NC(C)=O)[C@@H]1O (stereo partly shown) [chitohexose]
inhibitory effect on binding of B. cepacia to NHBE cells ([1]; 0-100 μg/ml): None of these sugars inhibited the binding

CC(=O)N[C@@H]1[C@@H](O)[C@H](O[C@@H]2O[C@H](CO)[C@@H](O[C@@H]3O[C@H](CO)[C@@H](O[C@@H]4O[C@H](CO)[C@@H](O[C@@H]5O[C@H](CO)[C@@H](O)[C@H](O)[C@H]5NC(C)=O)[C@H](O)[C@H]4NC(C)=O)[C@H](O)[C@H]3NC(C)=O)[C@H](O)[C@H]2NC(C)=O)[C@@H](CO)O[C@H]1O [chitopentose]
inhibitory effect on binding of B. cepacia to NHBE cells ([1]; 0-100 μg/ml): None of these sugars inhibited the binding

N[C@H]1[C@H](O[C@H]2[C@H](O)[C@@H](N)[C@H](O[C@H]3[C@H](O)[C@@H](N)[C@H](O[C@H]4[C@H](O)[C@@H](N)C(O)O[C@@H]4CO)O[C@@H]3CO)O[C@@H]2CO)O[C@H](CO)[C@@H](O)[C@@H]1O (stereo partly shown) [chitotetraose]
inhibitory effect on binding of B. cepacia to NHBE cells ([1]; 0-100 μg/ml): None of these sugars inhibited the binding

chitobiose
inhibitory effect on binding of B. cepacia to NHBE cells ([1]; 0-100 μg/ml): None of these sugars inhibited the binding
